Test [1] relates to Spodoptera littoralis. Kind of test: Insecticidal activity against Spodoptera littorali first-instar stages grown on compound pre-treated cotton leaves assessed as insect mortality at 16 mg/L of active ingredient measured up to 4 days post dose. Format: functional.
Test [2] relates to Bemisia tabaci. Kind of test: Insecticidal activity against adult Bemisia tabaci biotype B (sweet potato whitefly) reared on compound pre-treated cotton seedlings assessed as insect mortality at 20 mg/L of active ingredient measured after 7 days post dose. Format: functional, organism-based.
Test [3] deals with Myzus persicae. Kind of test: Insecticidal activity against Myzus persicae Fluf-RG-15 (green peach aphid) first nymphal stages exposed to 0.1 mg of active ingredient per liter of compound for 15 generations grown on compound pre-treated mustard leaves assessed as insect mortality measured 72 hr post compound dose. Format: functional.
Test [4] has as its system Bemisia tabaci. Kind of test: Insecticidal activity against adult Bemisia tabaci biotype B (sweet potato whitefly) reared on compound pre-treated cotton seedlings assessed as insect mortality under out door conditions at 30 mg/L of active ingredient measured after 2 days post dose. Format: functional.
The test system of test [5] is Bemisia tabaci. The experiment in a line: Insecticidal activity against adult Bemisia tabaci biotype B (sweet potato whitefly) reared on compound pre-treated cotton seedlings assessed as insect mortality at 20 mg/L of active ingredient measured up to 4 days post dose. Format: functional.
Test [6] relates to Spodoptera littoralis. Kind of test: Insecticidal activity against Spodoptera littorali first-instar stages grown on compound pre-treated cotton leaves assessed as insect mortality under out door conditions at 16 mg/L of active ingredient measured after 2 days post dose. Format: functional.
Test [7] has as its system Spodoptera littoralis. Kind of test: Insecticidal activity against Spodoptera littorali first-instar stages grown on compound pre-treated cotton leaves assessed as insect mortality at 6.32 mg/L of active ingredient measured 72 hr post compound dose. Format: functional.
Test [8] relates to Bemisia tabaci. The experiment in a line: Insecticidal activity against adult Bemisia tabaci biotype B (sweet potato whitefly) reared on compound pre-treated cotton seedlings assessed as insect mortality under out door conditions at 30 mg/L of active ingredient measured after 1 days post dose. Format: functional.
Test [9] relates to Myzus persicae. Kind of test: Insecticidal activity against Myzus persicae (green peach aphid) first nymphal stages grown on compound pre-treated mustard leaves assessed as insect mortality measured 72 hr post compound dose. Format: functional.
Test [10] concerns Spodoptera littoralis. Kind of test: Insecticidal activity against Spodoptera littorali first-instar stages grown on compound pre-treated cotton leaves assessed as insect mortality at 16 mg/L of active ingredient measured after 14 days post dose. Format: functional.
In test [11] the test system is Bemisia tabaci. The experiment in a line: Insecticidal activity against adult Bemisia tabaci biotype B (sweet potato whitefly) reared on compound-pretreated cotton seedlings assessed as insect mortality at 0.5 mg/L of active ingredient measured 48 hr post compound dose. Format: functional.
The test system of test [12] is Spodoptera littoralis. Kind of test: Insecticidal activity against Spodoptera littorali first-instar stages grown on compound pre-treated cotton leaves assessed as insect mortality measured 72 hr post compound dose. Format: functional.
Test [13] concerns Bemisia tabaci. Kind of test: Insecticidal activity against thiamethoxam-resistant adult Bemisia tabaci ActRQ-G95 reared on compound-pre-treated cotton seedlings assessed as insect mortality. Format: functional.
In test [14] the test system is Bemisia tabaci. The experiment in a line: Insecticidal activity against adult Bemisia tabaci biotype B (sweet potato whitefly) reared on cotton seedlings assessed as insect mortality at 0.8 mg/L of active ingredient. Format: functional.
Test [15] has as its system Bemisia tabaci. The experiment in a line: Insecticidal activity against adult Bemisia tabaci biotype B (sweet potato whitefly) exposed to 0.1 mg of active ingredient per liter of compound for 30 generations reared on compound pre-treated cotton seedlings assessed as insect mortality at 0.8 mg/L of active ingredient. Format: functional.
Test [16] has as its system Bemisia tabaci. Kind of test: In-vivo inhibition of Bemisia tabaci (sweet potato whitefly) AChE isolated from white fly feeding on compound-pre-treated cotton leaves for 48 hr assessed as reduction in acetylthiocholine iodide hydrolysis by Ellman method based colorimetry. Format: functional, organism-based.
In test [17] the test system is Bemisia tabaci. Kind of test: Insecticidal activity against adult Bemisia tabaci biotype B (sweet potato whitefly) reared on cotton seedlings assessed as induction of insect mortality. Format: functional.
Test [18] addresses AChE2 (Bemisia tabaci) (UniProt B3SST5). The experiment in a line: Inhibition of AChE in Bemisia tabaci (sweet potato whitefly) homogenates assessed as reduction in acetylthiocholine iodide hydrolysis by Ellman method based colorimetry. A general note: In Ellman's method for cholinesterases, released thiocholine reacts with DTNB.
The test system of test [19] is Bemisia tabaci. The experiment in a line: Inhibition of oviposition of Bemisia tabaci biotype B (sweet potato whitefly) reared on cotton seedlings at 10 mg/L of active ingredient by oviposition choice assay. Format: functional, organism-based.
Test [20] deals with Bemisia tabaci. Kind of test: Inhibition of oviposition of Bemisia tabaci biotype B (sweet potato whitefly) reared on cotton seedlings at 10 mg/L of active ingredient by oviposition nonchoice assay. Format: functional, organism-based.
For test [21], the system named is Myzus persicae. The experiment in a line: Insecticidal activity against Myzus persicae (green peach aphid) first nymphal stages grown on compound pre-treated mustard leaves assessed as insect mortality at 1 mg/L of active ingredient measured 72 hr post compound dose. Format: functional.
Test [22] has as its system Spodoptera littoralis. Kind of test: Insecticidal activity against Spodoptera littorali first-instar stages grown on compound pre-treated cotton leaves assessed as insect mortality at 0.5 mg/L of active ingredient measured 72 hr post compound dose. Format: functional.
Test [23] relates to Spodoptera littoralis. The experiment in a line: Insecticidal activity against Spodoptera littorali first-instar stages grown on compound pre-treated cotton leaves assessed as insect mortality at 16 mg/L of active ingredient measured after 7 days post dose. Format: functional.
Test [24] has as its system Spodoptera frugiperda. Kind of test: Insecticidal activity against Spodoptera frugiperda (fall armyworm) fed with compound pre-treated sweet corn foliage 3 hr after compound application assessed as induction of mortality on day 0 post compound application. Format: functional.
For test [25], the system named is Spodoptera frugiperda. The experiment in a line: Insecticidal activity against Spodoptera frugiperda (fall armyworm) fed with compound pre-treated sweet corn foliage 3 hr after compound application assessed as induction of mortality on day 1 and 2 post compound application. Format: functional.

As a reminder, the mortality is the share of the test organisms that died.

Activity calls are given as the source filed them. The rule behind the calls is not given here.

Chain of AChE2 (Bemisia tabaci) (B3SST5 as listed by the source): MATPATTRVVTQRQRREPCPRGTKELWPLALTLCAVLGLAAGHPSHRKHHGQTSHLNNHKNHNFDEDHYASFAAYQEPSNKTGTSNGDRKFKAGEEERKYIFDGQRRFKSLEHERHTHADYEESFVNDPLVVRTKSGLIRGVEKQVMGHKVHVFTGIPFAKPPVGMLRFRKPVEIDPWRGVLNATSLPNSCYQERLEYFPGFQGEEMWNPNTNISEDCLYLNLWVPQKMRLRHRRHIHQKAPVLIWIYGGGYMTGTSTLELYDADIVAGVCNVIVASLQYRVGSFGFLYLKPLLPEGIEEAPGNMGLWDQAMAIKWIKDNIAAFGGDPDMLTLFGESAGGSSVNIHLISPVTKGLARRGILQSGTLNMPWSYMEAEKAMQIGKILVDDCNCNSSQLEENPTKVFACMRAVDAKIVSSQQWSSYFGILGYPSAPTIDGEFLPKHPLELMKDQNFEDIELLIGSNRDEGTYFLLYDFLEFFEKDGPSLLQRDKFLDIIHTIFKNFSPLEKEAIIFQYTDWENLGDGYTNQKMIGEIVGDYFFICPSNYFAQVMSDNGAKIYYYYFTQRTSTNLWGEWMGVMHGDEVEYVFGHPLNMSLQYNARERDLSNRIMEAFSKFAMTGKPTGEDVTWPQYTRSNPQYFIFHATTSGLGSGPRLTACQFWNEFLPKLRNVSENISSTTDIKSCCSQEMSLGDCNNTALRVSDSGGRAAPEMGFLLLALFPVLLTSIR

On to `CC(F)c1ncnc(NCCc2ccc(OC(F)(F)F)cc2)c1Cl` (configuration not stated) [FLUFENERIM], for which the mortality is reported as 80% in [1]; 30% in test [4]; 80% in test [5]; greater than 80% in [6]; 90% in [7]; 90% in test [8]. Moreover, the mortality in test [10] is 28%; in test [11], 94%; in test [14], 97%; in [21], 90%; in test [22], 90%; in test [23], 55%. In addition, the outcome in test [2] was inactive. Also, the LC50 was 0.31 mgAi/L in [3]; 0.39 mgAi/L in test [9]; 2.38 mgAi/L in [12]; 0.41 mgAi/L in test [13]; 2.38 mgAi/L in [15]; 0.35 mgAi/L in test [17]. Further, the LC90 in test [3] is recorded as 1.22 mgAi/L; in [9] it was 1.12 mgAi/L; in [13], 2.4 mgAi/L; in [15] it was 6.32 mgAi/L; in test [17], 1.24 mgAi/L. In addition, the inhibition result in test [16], in test [18], in test [19] and in test [20] was “Active” each time.
Consider `CNC(=O)ON=C(C)SC` [METHOMYL], for which the mortality in test [11] was determined as 10%; in [24] it was 50%; in [25], 5%; in test [22], 6%.

Source of the values: ChEMBL document CHEMBL3045181, “Flufenerim, a novel insecticide acting on diverse insect pests: biological mode of action and biochemical aspects” (2011).
